Reference: patent US4091006A, “Esters of 3-hydroxyindone compounds” (priority 1975, dated 1978)
≈ marks a conversion by molar mass, not a printed value.

Legend:
Corn = assay: Phytotoxicity, corn; details: 2500 ppm, 10 days
Procedure: (§5) Experiments were also conducted to determine the phytotoxicity of representative enol ester compositions with respect to healthy fresh plants. […] The test plants were sprayed in accordance with the procedure described above for the Mite Foliage Spray Test so as to deliver approximately 100 milliliters of test solution to the leaves of each plant tested. The sprayed plants and controls were set aside for approximately 1 hour to allow the solutions to dry and were then placed in the greenhouse. After 10 days the plants were visually inspected to determine the extent of foliage injury. A rating of 1 indicates no perceptible injury; 5 indicates the plant was dead and ratings of 2, 3 and 4 indicate intermediate degrees of injury based upon the number and extent to which leaves were injured.

[1] = system: eggs of the two-spotted mite; assay: Fumigant toxicity, Method 1 (deposit in pie plate); assay type: in vivo; details: deposit approx. 160 μg per square cm, 4 days
Procedure: (§1) Two methods were used to evaluate fumigant properties:
Method 1: Fifty mg. of each compound were dissolved in 5 ml. of acetone and poured into a 20 cm. (bottom diameter) Pyrex No. 210 pie plate. The acetone was allowed to evaporate leaving a deposit of approximately 160 μg. per square cm. The plate was then placed in the bottom of a 50 pound metal lard container (about 30 cm. in diameter and 34 cm. high). Two excised bean plants, held in a 250 ml. Erlenmeyer flask containing 100 ml. of tap water and infested with eggs of the two-spotted mite, were placed in the center of the pie plate. The container was held in the insectary (temperature 80±5° F., 50±5% R. H.) for four days before mortality determinations were made.

Tomato = assay: Phytotoxicity, tomato; details: 2500 ppm, 10 days
Procedure: as §5

[2] = system: egg forms of the two-spotted mite; assay: Fumigant toxicity, Method 2 (treated plants near untreated infested plants); assay type: in vivo; details: 500 ppm dip, 4 days
Procedure: as §1
Method 2: Excised bean plants infested with egg forms of the two-spotted mite were dipped in an aqueous preparation (500 ppm) of the test compound. The treated plants were transferred to 250 ml. Erlenmeyer flasks containing 100 ml. of tap water. Four flasks holding treated plants were evenly spaced around a similar flask in which were placed untreated mite-infested plants so that the leaves of the treated foliage were in close proximity (1-3 inches) to the untreated plants. Four days later mortality determinations were made.

Bean = assay: Phytotoxicity, bean; details: 2500 ppm, 10 days
Procedure: as §5

[3] = system: Perennial rye grass, crabgrass, red root pigweed, mustard; assay: Preliminary Herbicide Seed Germination Test; details: rating/maximum 40: 100 and 1000 ppm, four species, each rated 1 (no injury) to 5 (no seedlings emerged), 10-12 days
Source text: The thus-prepared stock suspension contained 0.5 percent by weight of compound. The test concentrations employed in the tests described hereinbelow were obtained by diluting the stock suspension with water. The test procedures were as follows:
The following seeds were used in this test:
Crabgrass -- Digitaria san-
Mustard -- Brassica pincea var.
Each of above mixtures is rolled separately in 5 gallon containers for approximately one-half hour on ball mill to insure uniform mixing of seeds and soil. For each compound four 3-inch pots are filled with soil to within 11/2 inches of top of pots. To 2 of these pots are added 70 cc. of Mixture I. To the remaining 2 pots are added 70 cc. of Mixture II. The seed-soil mixture is tamped firmly, and the pots are removed to the greenhouse and watered lightly. About 2 hours after planting, 25 milliliters of the test formulation were added to each of 2 pots for each soil-seed mixture; i.e., one replicate of each seed mixture per concentration. An equal volume of a water solution containing acetone and an emulsifier in the same concentration as the herbicidal mixture but without the candidate herbicide is also added to each of the soil-seed mixtures. These pots are used as check or control units. The test compounds are formulated by standard procedure of solution in acetone, addition of an emulsifier, and dilution with water. Tests were conducted on all compositions at low concentration (100 ppm.). Certain compositions were also tested at high concentration (1000 ppm). The pots were held in the greenhouse and watered lightly until results were taken. Ten to twelve days after application of chemical, injury is noted for each species by comparing treated vs. untreated pots. Ratings are made at both the high and the low concentrations (1000 ppm and 100 ppm) according to the following designations:
4 = few seedlings emerged and/or very severe stunting
3 = moderate reduction in stand and/or moderate stunting
2 = very slight reduction in stand and/or slight stunting
1 = no injury; seedlings appear no different with respect to stand or growth than untreated controls
Accordingly, the maximum rating for one test seed species tested at both high and low concentration is 10 and the maximum possible total preemergence rating is 40 (10 for each of the four test seed species). […] In some tests the crabgrass experiment was omitted. In these tests the maximum total rating for species tested at both high and low concentrations is 30 and 15 for species tested only at low concentrations.

Mite Adults = assay: whole plant or invertebrate; details: for Mite Adults LD95: concentration to kill 95 percent
Procedure: Adults and nymphal stages of the two-spotted mite (tetranychus urticae (Koch)), reared on Tendergreen bean plants at 80±5° F. and 50±5 percent relative humidity, were the test organisms. Infested leaves from a stock culture were placed on the primary leaves of two bean plants 6 to 8 inches in height, growing in a 21/2 inch clay pot. 150-200 Mites, a sufficient number for testing, transferred from the excised leaves to the fresh plants in a period of 24 hours. Following the 24 hour transfer period, the excised leaves were removed from the infested plants. The test compounds were formulated by diluting the stock suspension with water to provide suspensions containing the desired amount of test compound per million parts of final formulation. The potted plants (one pot per compound) were placed on a revolving turntable and sprayed with 100-110 milliliters of test compound formulation by use of a DeVilbis spray gun set at 40 psi. air pressure. This application, which lasted 30 seconds, was sufficient to wet the plants to run-off. As a control, 100-110 milliliters of a water solution containing acetone and emulsifier in the same concentrations as the test compound formulation, but containing no test compound, were also sprayed on infested plants. The sprayed plants were held at 80±5° F. and 50±5 percent relative humidity for 4 days, after which, a mortality count of motile forms was made. Microscopic examination for motile forms was made on the leaves of the test plants. Any individual which was capable of locomotion upon prodding was considered living.
(§2) Side by side comparison tests were conducted to determine the effectiveness of selected enol ester compounds relative to (bis(p-chlorophenyl)trichlorethanol) a miticide sold under the trademark Kelthane and ovex (p-chlorophenyl-p-chlorobenzene sulfonate) two widely used commercial miticides.

Cotton = assay: Phytotoxicity, cotton; details: 2500 ppm, 10 days
Procedure: as §5

[4] = system: adults and nymphal stages of the two-spotted mite; assay: Mite Foliage Spray Test; assay type: in vivo, Tetranychus urticae (Koch); details: 4 days
Source text: (§3) The test procedures were as follows:
(§4) Compositions were rated on the basis of percent kill with a rating of 1 indicating no mortality; 3 signifying an approximately 50% mortality and 5 indicating 100% mortality at the indicated dosage.

[5] = system: egg of the two-spotted mite; assay: Mite Ovicide Test; assay type: in vivo, Tetranychus urticae (Koch); details: spray on eggs, 4 days
Source text: as §3
The plants were allowed to dry thoroughly.
as §4

Mite Ova = assay: whole plant or invertebrate; details: for Mite Ova LD95: concentration to kill 95 percent
Procedure: The test organism was the egg of the two-spotted mite (Tetranychus urticae (Koch)), as obtained from adults reared on Tendergreen bean plants under controlled conditions of 80±5° F. and 50±5 percent relative humidity. Heavily infested leaves from a stock culture were placed on the primary leaves of two bean plants 6 to 8 inches in height, growing in a 21/2 inch clay pot. Females were allowed to oviposit for a period of 48 hours and then the leaves of the infested plants were dipped in a solution containing 800 parts of tetraethyl pyrophosphate per million parts of water in order to destroy the reproductory forms and thus prevent further egg laying. […] The plants were allowed to dry thoroughly. […] The potted plants (one pot per compound) were placed on a revolving turntable and sprayed with 100-110 milliliters of test compound formulation by use of a DeVilbis spray gun set at 40 psig. air pressure. This application, which lasted 30 seconds, was sufficient to wet the plants to run-off. As a control, 100-110 milliliters of a water solution containing acetone and emulsifier in the same concentrations as the test compound formulation, but containing no test compound, were also sprayed on plants infested with eggs. The sprayed plants were held at 80±5° F. and 50±5 percent relative humidity for 4 days, after which a microscopic examination was made of unhatched (dead) and hatched (living) eggs.
as §2

two-spotted mite = assay: Small scale field tests, mite control on Tendergreen bean plants; assay type: in vivo, Tetranychus urticae (Koch); details: for Average mite control rating, 3rd Reading: 21 days
Procedure: Selected enol ester compositions were evaluated in small scale field tests to determine whether the excellent miticidal properties observed in greenhouse testing would be obtained under actual conditions of field use.
In Test I 500 ppm aqueous dispersions were prepared as described above. In tests II and III various dilutions of the test compounds ranging from 125 ppm to 1000 ppm were prepared and used. In each case the test dispersions were applied to a minimum of two replicate test plots measuring five feet in length and containing healthy young Tendergreen bean plants which had previously been infested with two-spotted mite (Tetranychus urticae (Koch)). Dispersions of the test compounds at each concentration level were applied to individual replicate plots using 1/2 gallon garden sprayers equipped with spray nozzles to apply approximately 250 ml. of test solution to each replicate. The effectiveness of the treatment was determined at intervals following application, by microscopic examination of five leaves selected at random from each replicate plot. The degree of effectiveness for each leaf was rated on a scale of from 1 to 5 with 1 indicating no control in reference to a standard sprayed with a mixture of solution less test compound and 5 indicating complete control. The results obtained from inspection of sample leaves were then averaged to give a numerical indication of the degree of control for each compound tested at the concentration applied.

## CCCCC(CC)C(=O)OC1=C(c2c(C)cc(C)cc2C)C(=O)c2ccccc21 (stereo not drawn) [2-(2',4',6'-Trimethylphenyl)-3-(2-ethylhexanoyloxy)indone]
Corn
  Phytotoxicity Rating, Corn: 1
[1]
  Fumigant Toxicity Method 1: 1
Tomato
  Phytotoxicity Rating, Tomato: 1
[2]
  Fumigant Toxicity Method 2: 1
Bean
  Phytotoxicity Rating, Bean: 2
[3]
  Herbicide (total preemergence rating): 29/40
Mite Adults
  Mite Adults LD95: 230 ppm
Cotton
  Phytotoxicity Rating, Cotton: 1
[4]
  Mite Adult rating: 5 (100% mortality)
[5]
  Mite Ova rating: 5 (100% mortality)
Mite Ova
  Mite Ova LD95: 6 ppm

## Cc1cc(C)c(C2=C(OC(=O)C(C)(C)C)c3ccccc3C2=O)c(C)c1 [2-(2',4',6'-Trimethylphenyl)-3-(pivaloyloxy)indone]
Corn
  Phytotoxicity Rating, Corn: 3
[1]
  Fumigant Toxicity Method 1: 5 (80-100% control)
Tomato
  Phytotoxicity Rating, Tomato: 3
[2]
  Fumigant Toxicity Method 2: 5 (80-100% control)
Bean
  Phytotoxicity Rating, Bean: 1
[3]
  Herbicide (total preemergence rating): 32/40
Mite Adults; Tetranychus urticae, read-out: Mite Adults LD50
  LC50: 5 µg/mL (≈ 14.3 µM)
Mite Adults
  Mite Adults LD95: 170 ppm
two-spotted mite; Test I, 500 ppm, 4 days, scale 1 (no control) to 5 (complete control)
  Average mite control rating, 1st Reading: 4.0
two-spotted mite; Test I, 500 ppm, 8 days, scale 1 to 5
  Average mite control rating, 2nd Reading: 3.5
two-spotted mite; Test II, 250 ppm, 3 days, scale 1 to 5
  Average mite control rating, 1st Reading: 3.0
two-spotted mite; Test II, 250 ppm, 7 days, scale 1 to 5
  Average mite control rating, 2nd Reading: 4.0
two-spotted mite; Test II, 500 ppm, 3 days, scale 1 to 5
  Average mite control rating, 1st Reading: 2.3
two-spotted mite; Test II, 500 ppm, 7 days, scale 1 to 5
  Average mite control rating, 2nd Reading: 4.7
two-spotted mite; Test III, 125 ppm, 3 days, scale 1 to 5
  Average mite control rating, 1st Reading: 1.7
two-spotted mite; Test III, 125 ppm, 7 days, scale 1 to 5
  Average mite control rating, 2nd Reading: 2.3
two-spotted mite; Test III, 125 ppm, scale 1 to 5
  Average mite control rating, 3rd Reading: 1.7
two-spotted mite; Test III, 250 ppm, 3 days, scale 1 to 5
  Average mite control rating, 1st Reading: 3.0
two-spotted mite; Test III, 250 ppm, 7 days, scale 1 to 5
  Average mite control rating, 2nd Reading: 4.0
two-spotted mite; Test III, 250 ppm, scale 1 to 5
  Average mite control rating, 3rd Reading: 3.7
two-spotted mite; Test III, 500 ppm, 3 days, scale 1 to 5
  Average mite control rating, 1st Reading: 3.0
two-spotted mite; Test III, 500 ppm, 7 days, scale 1 to 5
  Average mite control rating, 2nd Reading: 4.0
two-spotted mite; Test III, 500 ppm, scale 1 to 5
  Average mite control rating, 3rd Reading: 4.5
Cotton
  Phytotoxicity Rating, Cotton: 3
[4]
  Mite Adult rating: 5 (100% mortality)
[5]
  Mite Ova rating: 5 (100% mortality)
Mite Ova; Tetranychus urticae, read-out: Mite Ova LD50
  LC50: 3 µg/mL (≈ 8.61 µM)
Mite Ova
  Mite Ova LD95: 9 ppm
